Measured values as given in article PMC6838762 (Biophysical Journal, 2019).

Target: T1, FeuA (Bacillus subtilis, UniProt P40409, Q131C)
T1 sequence (P40409 21-317 Q131C): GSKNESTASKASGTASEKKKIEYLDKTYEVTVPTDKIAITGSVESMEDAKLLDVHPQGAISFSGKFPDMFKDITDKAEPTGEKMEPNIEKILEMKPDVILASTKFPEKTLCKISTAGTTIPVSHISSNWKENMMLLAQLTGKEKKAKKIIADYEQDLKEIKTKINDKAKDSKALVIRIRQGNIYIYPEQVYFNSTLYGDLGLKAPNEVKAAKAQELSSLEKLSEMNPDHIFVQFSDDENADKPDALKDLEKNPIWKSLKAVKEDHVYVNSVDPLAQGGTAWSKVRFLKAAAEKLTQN
Assay type: binding

ferri-bacillibactin [FeBB]
Kd: 20 ± 3 nM
